Where only a bound is given, the exact number is not on record here.

The target of the assay is T1, human Arginine Vasopressin Receptor 1a (AVPR1a) (Homo sapiens, UniProt P37288).
T1 construct: expressed in transfected cells; host or cells: CHO (CHO-AVPR1a, kept under G418 selection)
T1 sequence (P37288 whole entry): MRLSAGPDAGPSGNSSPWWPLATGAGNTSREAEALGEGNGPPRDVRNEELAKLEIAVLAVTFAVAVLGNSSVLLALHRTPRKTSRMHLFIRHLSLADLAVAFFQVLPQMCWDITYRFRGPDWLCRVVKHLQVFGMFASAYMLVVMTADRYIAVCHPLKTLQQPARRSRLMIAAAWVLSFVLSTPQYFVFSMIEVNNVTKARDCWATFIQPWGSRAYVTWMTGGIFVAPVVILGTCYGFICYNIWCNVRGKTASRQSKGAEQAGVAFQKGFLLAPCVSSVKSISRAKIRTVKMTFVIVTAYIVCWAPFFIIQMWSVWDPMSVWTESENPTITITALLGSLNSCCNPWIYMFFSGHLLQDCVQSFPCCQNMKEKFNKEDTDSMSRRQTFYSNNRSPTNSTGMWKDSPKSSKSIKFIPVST
The assay is described as follows: Vasopressin V1a receptor antagonist assay (FLIPR calcium, CHO-AVPR1a cells). The format is cell-based. On the procedure:
The purpose of this assay was to determine the inhibitory effect of synthesized compounds on the Vasopressin V1a receptor. The assay was performed in Chinese Hamster Ovary (CHO) cells expressing the human Arginine Vasopressin Receptor 1a (AVPR1a). Arginine Vasopressin (AVP) evokes an increase in intracellular calcium in CHO-AVPR1a cells which is measured in a fluorescence assay on the FLIPR^TETRA using calcium sensitive dyes. Test compounds were assessed for their ability to affect the magnitude of the response to AVP, with antagonists showing a concentration-dependent reduction in the AVP-mediated fluorescence. Compounds were tested in duplicate in a 10-point, 1:3 dilution series starting at a nominal concentration of 3 μM in the assay.
CHO-AVPR1a cells were maintained in routine culture in T175 Flasks at 37° C., 5% CO2. The growth medium consists of Ham's F12 media supplemented with 10% v/v fetal bovine serum, 1× non-essential amino acids, and 0.4 mg/ml Geneticin G418.
On day one, cells were harvested from T175 flasks when they are 80-90% confluent by first washing the cell monolayer with PBS and then dissociated using trypsin 0.05%/EDTA (3 mL for a T175 Flask). The flasks were incubated at room temperature until the cells detached. To the cell suspension, 10 ml of growth media was added and the cell density determined using the Vi-Cell automated cell counter. The cells were spun at 1000 rpm for 3 minutes, then the supernatant was carefully removed and discarded. The cell pellet was re-suspended at 6.0e^5 cells/ml in growth media. 25 μL of cells in growth media was dispensed into each well (15,000 cells per well) of a poly-D-lysine coated black, clear bottomed, 384-well plate. The plates were incubated at 37° C., 5% CO2 overnight.
At the start of each assay day, the potency of AVP was assessed and an EC80 concentration determined for subsequent compound profiling. Assays were performed using a two-step addition protocol on the FLIPR^TETRA; first addition of 5 μl of control or test compound at 10× final in assay buffer with 15 min incubation at 37° C., 5% CO2 followed by 10 μl of AVP at 6× final concentration in assay buffer. Changes in fluorescence were monitored for 3 min after both additions on the FLIPR^TETRA using 470-495 nm excitation and 515-575 nm emission wavelengths. The assay buffer consisted of HBSS (+Ca/+Mg) supplemented with 20 mM HEPES, and for the preparation of the AVP agonist only, 0.1% w/v bovine serum albumin. The assay was initiated by the removal of growth media from the cells and replacement with 45 μl of Calcium-6 dye (Molecular Devices) prepared at 1× in assay buffer. Cells were loaded with dye for 60-90 min at 37° C., 5% CO2 before initiation of the FLIPR^TETRA protocol. […] For compound profiling, test compounds were first serially diluted in DMSO (10-point curve, 1:3 dilutions) then diluted 33.3-fold in assay buffer prior to addition to the dye loaded cells on the FLIPR^TETRA. At the end of the incubation period, 10 μl of AVP in assay buffer containing 0.1% BSA was added at the previously determined EC80 concentration.
In-plate controls for the assay included balovaptan and PF-184563 concentration-response curves as reference V1a antagonists, and an AVP concentration-response curve to confirm the reproducibility of the EC80 used for the compound challenge.
Regarding `COc1cccc(N2CC3(CN(C(=O)N4CCOc5cc(Cl)ccc54)C3)C2)n1` [1-2], the IC50 was less than 100 nM.
In the case of `CC1COc2cc(Cl)ccc2N1C(=O)N1CC2(C1)CN(c1cc(=O)n(C)cn1)C2` (stereo not drawn) [20-14] it was 100 to 500 nM; in that of `O=C(N1CC2(C1)CN(c1ccnc(OC(F)F)c1)C2)N1CCOc2cc(Cl)ccc21` [1-35], no less than 1000 nM.
In the case of `Cc1cc(C)nc(N2CC3(CN(C(=O)N4CCOc5cc(Cl)ccc54)C3)C2)n1` [1-38] it was less than 100 nM.
Under `CC1COc2cc(Cl)ccc2N1C(=O)N1CC2(C1)CN(c1ncc(F)cn1)C2` (stereo not drawn) [18-2] stands less than 100 nM.
As to `O=C(N1CC2(C1)CN(c1cccc(CO)n1)C2)N1CCOc2cc(Cl)ccc21` [1-32], the IC50 was 100 to 500 nM.
Consider `O=C(N1CC2(C1)CN(c1ccc(F)cc1)C2)N1CCOc2cc(Cl)ccc21` [1-40], for which the IC50 fell in the range of 100 to 500 nM.
For `O=C(N1CC2(C1)CN(c1ccc(F)cn1)C2)N1CCC(O)c2c1ccc(Cl)c2F` (single isomer, unassigned) [13-5-A], the IC50 was less than 100 nM.
Under `CCc1ccnc(N2CC3(CN(C(=O)N4c5ccc(Cl)cc5OCC4C)C3)C2)n1` (single isomer, unassigned) [18-5-B] stands less than 100 nM; under `COc1ccnc(N2CC3(CN(C(=O)N4c5ccc(Cl)cc5OCC4C)C3)C2)n1` (single isomer, unassigned) [20-9-A], no less than 1000 nM.
Under `O=C(N1CC2(CN(Cc3ccc(F)cn3)C2)C1)N1CCOc2cc(Cl)ccc21` [2-6] stands no less than 1000 nM.
Under `O=C(N1CC2(C1)CN(c1ccc(F)cn1)C2)N1CCOc2ncccc21` [8-5] stands no less than 1000 nM; under `O=C(N1CC2(CN(Cc3cnccn3)C2)C1)N1CCOc2cc(Cl)ccc21` [2-5], no less than 1000 nM.
With `COc1cnc(N2CC3(CN(C(=O)N4CCOc5cc(Cl)ccc54)C3)C2)nc1` [1-48], the IC50 was 100 to 500 nM.
Under `O=C(N1CC2(C1)CN(c1ccc(F)cn1)C2)N1CCOc2ccccc21` [1-63] stands 100 to 500 nM.
With `Cc1ncccc1N1CC2(CN(C(=O)N3CCOc4cc(Cl)ccc43)C2)C1` [1-9], the IC50 is 500 to 1000 nM.
For the compound `O=C(N1CC2(C1)CN(c1ccc(OC(F)F)cn1)C2)N1CCOc2cc(Cl)ccc21` [1-12], the IC50 is no less than 1000 nM.
Under `Cc1nccnc1N1CC2(CN(C(=O)N3c4ccc(Cl)cc4OCC3C)C2)C1` (single isomer, unassigned) [20-10-B] stands no less than 1000 nM; under `Cn1ccc(N2CC3(CN(C(=O)N4CCOc5cc(Cl)ccc54)C3)C2)n1` [1-10], 100 to 500 nM; under `CC1COc2cc(F)ccc2N1C(=O)N1CC2(C1)CN(c1ccccn1)C2` (stereo not drawn) [1-66], less than 100 nM.
In the case of `N#Cc1cnc(N2CC3(CN(C(=O)N4CCOc5cc(Cl)ccc54)C3)C2)cn1` [1-24] it was 500 to 1000 nM.
Turning to `CCC1COc2cc(Cl)ccc2N1C(=O)N1CC2(C1)CN(c1ccc(F)cn1)C2` (single isomer, unassigned) [1-55-A], the IC50 was 500 to 1000 nM.
Under `Cn1nccc1N1CC2(CN(C(=O)N3CCOc4cc(Cl)ccc43)C2)C1` [1-42] stands 100 to 500 nM; under `O=C(N1CC2(C1)CN(c1ccc(F)cn1)C2)N1CCS(=O)(=O)c2cc(Cl)ccc21` [8-17], 100 to 500 nM; under `CC1COc2cc(F)ccc2N1C(=O)N1CC2(C1)CN(c1noc3ccccc13)C2` (single isomer, unassigned) [4-3-A], 100 to 500 nM.
Under `O=C(N1CC2(C1)CN(c1ccncc1)C2)N1CCOc2cc(Cl)ccc21` [1-34] stands no less than 1000 nM; under `Cc1ccnc(N2CC3(CN(C(=O)N4c5ccc(F)cc5OCC4C)C3)C2)c1` (single isomer, unassigned) [20-4-A], no less than 1000 nM.
In the case of `CC1COc2cc(Cl)ccc2N1C(=O)N1CC2(C1)CN(c1cc(=O)n(C)cn1)C2` (single isomer, unassigned) [20-14-A] it was no less than 1000 nM; in that of `Cc1cnnc(N2CC3(CN(C(=O)N4CCOc5cc(Cl)ccc54)C3)C2)c1` [3-1, (7-chloro-2,3-dihydro-4H-benzo[b][1,4]oxazin-4-yl)(6-(5-methylpyridazin-3-yl)-2,6-diazaspiro[3.3]heptan-2-yl)methanone], less than 100 nM.
As to `O=C(N1CC2(C1)CN(c1ncc(F)cc1F)C2)N1CCOc2cc(Cl)ccc21` [1-50], the IC50 is less than 100 nM.
Under `Cn1ccc2ncc(N3CC4(CN(C(=O)N5CCOc6cc(Cl)ccc65)C4)C3)cc21` [1-41] stands 100 to 500 nM; under `O=C(N1CC2(CN(Cc3ccccn3)C2)C1)N1CCOc2cc(Cl)ccc21` [2-2], no less than 1000 nM.
In the case of `Cc1nc(N2CC3(CN(C(=O)N4CCOc5cc(Cl)ccc54)C3)C2)no1` [7-1, (7-chloro-2,3-dihydro-4H-benzo[b][1,4]oxazin-4-yl)(6-(5-methyl-1,2,4-oxadiazol-3-yl)-2,6-diazaspiro[3.3]heptan-2-yl)methanone] it was 100 to 500 nM; in that of `Cc1ccnc(N2CC3(CN(C(=O)N4c5ccc(Cl)cc5OCC4C)C3)C2)c1` (single isomer, unassigned) [20-11-A], 500 to 1000 nM; in that of `CCc1ccnc(N2CC3(CN(C(=O)N4c5ccc(Cl)cc5OCC4C)C3)C2)n1` (single isomer, unassigned) [18-5-A], no less than 1000 nM.
With `Cc1cnc(N2CC3(CN(C(=O)N4c5ccc(Cl)cc5OCC4C)C3)C2)cn1` (single isomer, unassigned) [20-5-A], the IC50 is less than 100 nM.
Under `COc1cnc(N2CC3(CN(C(=O)N4CCOc5cc(Cl)ccc54)C3)C2)cn1` [1-23] stands less than 100 nM; under `CC1COc2cc(Cl)ccc2N1C(=O)N1CC2(C1)CN(c1ccccn1)C2` (single isomer, unassigned) [1-60-A], 500 to 1000 nM.
In the case of `COc1ccc(N2CC3(CN(C(=O)N4CCOc5cc(Cl)ccc54)C3)C2)nn1` [1-27] it was 100 to 500 nM.
In the case of `CN1CCCN(C(=O)N2CC3(C2)CN(c2ccc(F)cn2)C3)c2ccc(F)cc21` [8-10] it was less than 100 nM; in that of `O=C(N1CC2(C1)CN(c1ccc(F)cn1)C2)N1CCOc2c1ccc(F)c2F` [9-5], less than 100 nM; in that of `Cc1ccnc(N2CC3(CN(C(=O)N4c5ccc(Cl)cc5OCC4C)C3)C2)c1` (single isomer, unassigned) [20-11-B], less than 100 nM.
Take `Cc1cnc(N2CC3(CN(C(=O)N4CCOc5cc(Cl)ccc54)C3)C2)nc1` [1-37]: the IC50 was in the range of 100 to 500 nM.
Turning to `CC1CN(C(=O)N2CC3(C2)CN(c2ccc(F)cn2)C3)c2ccc(F)cc2O1` (stereo not drawn) [9-4], the IC50 was less than 100 nM.
Regarding `O=C(N1CC2(C1)CN(c1nccnc1F)C2)N1CCOc2cc(Cl)ccc21` [1-33], the concentration for half-maximal inhibition (IC50) was less than 100 nM.
With `CC1COc2cc(Cl)ccc2N1C(=O)N1CC2(C1)CN(c1ccc(F)cn1)C2` (stereo not drawn) [1-73], the IC50 is less than 100 nM.
Under `COc1ncccc1N1CC2(CN(C(=O)N3CCOc4cc(Cl)ccc43)C2)C1` [1-8] stands 100 to 500 nM; under `COc1ccc2c(c1)OCC(C)N2C(=O)N1CC2(C1)CN(c1ccc(F)cn1)C2` (single isomer, unassigned) [1-59-A], no less than 1000 nM.
In the case of `CC1COc2cc(Cl)ccc2N1C(=O)N1CC2(C1)CN(c1cnccn1)C2` (single isomer, unassigned) [1-58-A] it was no less than 1000 nM.
For `CC1COc2cc(Cl)ccc2N1C(=O)N1CC2(C1)CN(c1nccc(C#N)n1)C2` (single isomer, unassigned) [20-16-B], the IC50 is less than 100 nM.
Regarding `Cc1cc(F)cnc1N1CC2(CN(C(=O)N3CCOc4cc(Cl)ccc43)C2)C1` [1-52], the IC50 was less than 100 nM.
Under `CC1CN(C(=O)N2CC3(C2)CN(c2ccc(F)cn2)C3)c2ccc(F)cc2O1` (single isomer, unassigned) [9-4-A] stands 100 to 500 nM; under `COC1CCN(C(=O)N2CC3(C2)CN(c2ccc(F)cn2)C3)c2ccc(Cl)cc21` (stereo not drawn) [16-1, (6-chloro-4-methoxy-3,4-dihydroquinolin-1(2H)-yl)(6-(5-fluoropyridin-2-yl)-2,6-diazaspiro[3.3]heptan-2-yl)methanone], less than 100 nM; under `O=C(N1CC2(C1)CN(c1nccn3cncc13)C2)N1CCOc2cc(Cl)ccc21` [1-44], less than 100 nM.

One may read the IC50 as the point on the concentration scale where inhibition reaches its midpoint.

(Values after patent US12152038B2, “Vasopressin receptor antagonists and products and methods related thereto” (Neumora Therapeutics, Inc., priority 2017, dated 2024).)
